In patent US6905841B2, “Enzymatic substrates for detecting Pseudomonas aeruginas” (Biomerieux S.A., priority 1999, dated 2005):
Read-outs that look alike come from different tables or passages of the source.

Columns and labels:
β-alanine aminopeptidase [1] = settings: Citrobacter freundii; 2 strains tested; read after 22 to 24 hours
β-alanine aminopeptidase [2] = settings: Pseudomonas stutzeri; 3 strains tested; read after 22 to 24 hours
β-alanine aminopeptidase [3] = assay: APIZYM-type test strips with β-alanyl-β-naphthylamide; type: cell-based; settings: Shigella sonnei; five strains
β-alanine aminopeptidase [4] = assay: as above; type: cell-based; settings: Citrobacter diversus; five strains
β-alanine aminopeptidase [5] = assay: as above; type: cell-based; settings: Proteus mirabilis; five strains
β-alanine aminopeptidase [6] = assay: as above; type: cell-based; settings: Providencia alcalifaciens; five strains
β-alanine aminopeptidase [7] = assay: as above; type: cell-based; settings: Pseudomonas luteola; five strains
β-alanine aminopeptidase [8] = assay: as above; type: cell-based; settings: Sphingomonas paucimobilis; five strains
β-alanine aminopeptidase [9] = assay: as above; type: cell-based; settings: Achroniobacter xylosoxidans spp. denitrificans; five strains
β-alanine aminopeptidase [10] = assay: as above; type: cell-based; settings: CDC IV C2; five strains
β-alanine aminopeptidase [11] = assay: as above; type: cell-based; settings: Aeromonas hydrophila; five strains

| Molecule | Number of negative results (β-alanine aminopeptidase [1]) | Number positive results (β-alanine aminopeptidase [1]) | Number of negative results (β-alanine aminopeptidase [2]) | Number positive results (β-alanine aminopeptidase [2]) | β-alanine aminopeptidase activity, result (β-alanine aminopeptidase [3]) | β-alanine aminopeptidase activity, result (β-alanine aminopeptidase [4]) | β-alanine aminopeptidase activity, result (β-alanine aminopeptidase [5]) | β-alanine aminopeptidase activity, result (β-alanine aminopeptidase [6]) | β-alanine aminopeptidase activity, result (β-alanine aminopeptidase [7]) | β-alanine aminopeptidase activity, result (β-alanine aminopeptidase [8]) | β-alanine aminopeptidase activity, result (β-alanine aminopeptidase [9]) | β-alanine aminopeptidase activity, result (β-alanine aminopeptidase [10]) | β-alanine aminopeptidase activity, result (β-alanine aminopeptidase [11]) |
| --- | --- | --- | --- | --- | --- | --- | --- | --- | --- | --- | --- | --- | --- |
| NCCC(=O)c1c(N)cc(Cl)c(O)c1Cl | 2 | 0 | 3 | 0 |  |  |  |  |  |  |  |  |  |
| β-alanyl-β-naphthylamide |  |  |  |  | negative | negative | negative | negative | negative | negative | negative | negative | negative |
